According to patent publication US20240325529A1, “MEDICAMENT FOR TREATMENT AND/OR PREVENTION OF CANCER” (TORAY INDUSTRIES, INC., priority 2021, published 2024):
Values belong to the molecule of their own block, whether it stands above or below them.

Experiments:
[1] = system: Basal-like subtype of breast cancer (BLBC); conditions: added to docetaxel after epirubicin and cyclophosphamide (EC treatment); cited from earlier work
[2] = target: T1, CAPRIN-1 on cell membrane surfaces of human cancer cells (Homo sapiens, UniProt Q14444); test: Flow cytometry reactivity with cell membrane surfaces of human cancer cells expressing CAPRIN-1; format: binding; conditions: human cancer cells: BT-474, HT-29, QG56, H1650, NCI-N87, HEC-1-A, 22Rv1, Panc10.5, Hep3B, SKOV3, Caki-2, U-87MG, T24, OE33, OCI-AML5, Ramos, TGBC 14TKB, HT-1080, G-361
T1 construct: endogenous in cells; host or cells: human cancer cell lines (BT-474, HT-29, QG56, H1650, NCI-N87, HEC-1-A, 22Rv1, Panc10.5, Hep3B, SKOV3, Caki-2, U-87MG, T24, OE33, OCI-AML5, Ramos, TGBC 14TKB, HT-1080, G-361)
T1 sequence (Q14444 1-709): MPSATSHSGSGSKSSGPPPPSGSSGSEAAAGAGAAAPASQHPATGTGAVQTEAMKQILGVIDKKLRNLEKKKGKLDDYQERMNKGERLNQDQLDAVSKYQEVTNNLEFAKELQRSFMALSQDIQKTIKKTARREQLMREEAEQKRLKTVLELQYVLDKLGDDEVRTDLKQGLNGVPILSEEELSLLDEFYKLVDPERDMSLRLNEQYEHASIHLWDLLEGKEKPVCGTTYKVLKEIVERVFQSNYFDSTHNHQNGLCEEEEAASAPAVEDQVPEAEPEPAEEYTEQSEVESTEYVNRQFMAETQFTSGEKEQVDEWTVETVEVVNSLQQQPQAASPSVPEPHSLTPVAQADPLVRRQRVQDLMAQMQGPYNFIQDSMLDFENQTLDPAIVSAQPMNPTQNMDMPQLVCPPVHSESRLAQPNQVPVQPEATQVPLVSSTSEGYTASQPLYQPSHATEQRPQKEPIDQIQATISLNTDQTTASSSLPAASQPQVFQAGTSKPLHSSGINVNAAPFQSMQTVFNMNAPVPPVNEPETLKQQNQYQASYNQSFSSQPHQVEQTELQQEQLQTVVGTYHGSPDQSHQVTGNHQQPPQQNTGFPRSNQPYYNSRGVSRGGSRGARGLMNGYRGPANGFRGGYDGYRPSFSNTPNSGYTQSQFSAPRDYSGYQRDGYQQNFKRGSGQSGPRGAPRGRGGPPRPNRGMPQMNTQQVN
From the text: Reactivity of each monoclonal antibody with human cancer cells confirmed to express CAPRIN-1 protein on cell membrane surfaces was further confirmed by flow cytometry.
The reactivity of the anti-CAPRIN-1 antibody with cancer cells without permeation treatment of cell membranes was examined by flow cytometry to confirm that a portion of CAPRIN-1 was expressed on cell membrane surfaces of cancer cells as shown by Examples given below.

Molecule: N.N.O=C([O-])C1(C(=O)[O-])CCC1.[Pt+2] [carboplatin]
effectiveness of administering carboplatin [1]: not effective

reactivity with cell membrane surfaces of cancer cells (fluorescence intensity versus negative control antibody) [2]: reacted strongly
B1: (ab): monoclonal antibody against CAPRIN-1 described in WO2013/125630, heavy-chain variable region SEQ ID NO: 114, light-chain variable region SEQ ID NO: 115 (antibody, listed as Mus musculus, V domains shown)
VH: GPELVKPGASVKMSCKASGYTFTSYVMHWVKQKPGQGLEWIGYINPYNDGTKYNEKFKGKATLTSDKSSSTAYMELSSLTSEDSAVYYCARRYYYGSSGGYFDVWAQDHVRT
VL: DVQITQSPSYLAASPGETITINCRASKSISKYLAWYQEKPGKTNKLLIYSGSTLQSGIPSRFSGSGSGTDFTLTISSLEPEDFAMYYCQQHNEYPYTFGGGTKLEIKR
